Values joined by “and” are separate entries in the source; they are usually repeats but may differ in a detail not shown here. Equal entries are not always repeated. “Also recorded” adds a separate entry of the source. Where two headings read alike, the source gives them in different places. Where a SMILES comes first, the peptide text is derived from it. Bridges are numbered along the chain shown (N, C = ends). [ ]: non-standard residue; d: D form. Orn(fluoroacetimidoyl) = N=C(CF)NCCC[C@H](N)C(=O)O

For assay [1], the system named is PADI4. The conditions noted are these: cited from earlier work.
Assay [2] has as its system PADIs 1-4. Description: COLDER citrullination activity of purified PADIs 1-4 and PADI4 C645A (no inhibitor). The format is biochemical, human. Set-up: key to Citrullination activity of PADI4 WT / C645A (Figure S4c): absorbance at 540 nm (colorimetric citrulline readout). The conditions noted are these: for Citrullination activity of PADI4 WT / C645A (Figure S4c): no inhibitor; for Absorbance at 540 nm: purified PADI enzyme, no inhibitor (Figure S10). The method, then: PADI4 citrullination activity was analysed using the COLDER assay in 96-well plates. Peptide dilutions were prepared from a 500 µM stock, to give a 10 times concentrated dilution series (500 µM, 300 µM, 100 µM, 30 µM, 10 µM, 3 µM, 1 µM, 0.3 µM, 0.1 µM and 0.03 µM) in COLDER buffer (50 mM HEPES, 150 mM NaCl and 2 mM DTT, pH 7.5) containing 1% DMSO. In triplicate, each was diluted 10-fold further when mixed with 50 nM His-PADI4, 0.6 mg/mL BSA and 10 mM CaCl2, in COLDER buffer. With or without one hour of incubation, 10 mM N^α-Benzoyl-L-arginine ethyl ester hydrochloride (BAEE, Merck) was added to initiate the reaction (50 µL final volume). After 30 min at rt, EDTA (50 mM final concentration) was used to quench the reaction and 200 µL of COLDER solution containing 20 mM Diacetyl monoxime/2,3-butanedione monoxime (Merck), 0.5 mM Thiosemicarbazide (Acros Organics), 2.25 M H3PO4, 4.5 M H2SO4 and 1.5 mM NH4Fe(SO4)2.12H2O was added to each well. Samples were incubated for 20 min at 95 °C before measuring absorbance at 540 nm on a CLARIOstar Plus (BMG LABTECH). Data analysis was performed with GraphPad Prism. Data are presented as the average ± standard error of the mean from at least two independent replicates.

The target in assay [3] is T1, PADI4 C645A (Homo sapiens, UniProt Q9UM07, C645A).
T1 construct: PADI4 (residues 1-663); made in house; host or cells: E. coli NiCo21(DE3)
T1 sequence (Q9UM07 whole entry C645A, the tested form may be a part): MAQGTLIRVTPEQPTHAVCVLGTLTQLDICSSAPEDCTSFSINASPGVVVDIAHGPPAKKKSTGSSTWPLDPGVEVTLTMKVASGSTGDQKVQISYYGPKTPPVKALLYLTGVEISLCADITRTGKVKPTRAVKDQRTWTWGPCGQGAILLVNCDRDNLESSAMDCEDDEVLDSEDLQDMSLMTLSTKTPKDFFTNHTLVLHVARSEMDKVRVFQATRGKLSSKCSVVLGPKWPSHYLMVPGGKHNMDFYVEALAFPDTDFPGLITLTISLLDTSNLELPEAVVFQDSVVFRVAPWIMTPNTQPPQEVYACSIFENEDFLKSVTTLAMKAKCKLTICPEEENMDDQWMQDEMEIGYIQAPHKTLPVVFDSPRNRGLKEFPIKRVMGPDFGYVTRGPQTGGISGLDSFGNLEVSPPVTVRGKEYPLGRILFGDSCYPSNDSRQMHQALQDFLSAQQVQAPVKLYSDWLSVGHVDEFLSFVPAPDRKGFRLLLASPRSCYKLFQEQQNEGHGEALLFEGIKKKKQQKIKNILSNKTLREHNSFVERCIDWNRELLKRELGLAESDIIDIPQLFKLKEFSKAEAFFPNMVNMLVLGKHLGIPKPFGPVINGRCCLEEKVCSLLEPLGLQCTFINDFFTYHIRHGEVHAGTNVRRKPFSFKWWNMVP
Briefly: Intact mass spectrometry of covalent labelling. The format is binding. As to conditions: 20 µM protein, 200 µM peptide, 1 hour at rt.

Assay [4] deals with T2, PADI4 (Homo sapiens, UniProt Q9UM07).
T2 construct: His6; made in house
T2 sequence (Q9UM07 whole entry): as the sequence (Q9UM07 whole entry C645A, the tested form may be a part) above, with A645C counted along it
Briefly: Surface plasmon resonance (SPR), single cycle kinetics. It is filed as binding. In outline: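 Biotinylated His-PADI4 captured on CAP chip (~3000 RU); peptides as 5-point 3-fold series in HEPES, 150 mM NaCl, 10 mM CaCl2, 0.1% DMSO, pH 7.5, triplicate. Warhead peptides fitted two-state (k-2 = 0; Ki = k-1/k+1, kinact = k+2); others 1:1.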
In general terms: In SPR one partner is held on a chip, and binding of the other changes the refractive index at the surface.

Assay [5] concerns the target T2, PADI4. Description: COLDER inhibition assay, BAEE substrate, with or without 1 h preincubation. The format is biochemical. The conditions noted are these: for remaining activity at 0.003 µM: peptide 0.003 µM; for remaining activity at 0.01 µM: peptide 0.01 µM; for remaining activity at 3 µM: peptide 3 µM; for remaining activity at 30 µM: peptide 30 µM. The procedure, abridged:
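50 nM His-PADI4 with peptide (final 0.1× the 0.03-500 µM series), 0.6 mg/mL BSA, 10 mM CaCl2 in 50 mM HEPES, 150 mM NaCl, 2 mM DTT, pH 7.5, with or without 1 h preincubation before 10 mM BAEE. After 30 min at rt, EDTA-quenched; citrulline read colorimetrically at 540 nm; mean ± SEM, ≥2 replicates.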

Assay [6] has as its target T2, PADI4. Description: Intact mass spectrometry of covalent labelling. It is filed as binding. The conditions noted are these: 20 µM PADI4, 200 µM peptide, 1 hour at rt.
[7] abbreviates: 1 h, T=1 (1 h preincubation), read-out: PADI4 activity, dose-response data of Figure S15 (individual replicates).
[8] abbreviates: T=0 (no preincubation), read-out: PADI4 activity, dose-response data of Figure S15 (individual replicates).

For `N=C(CF)NCCC[C@H](NC(=O)c1ccccc1)C(N)=O` [Fluoroamidine], in assay [1], the “selectivity for PADI4 over PADI1” value is on record as “limited selectivity”.
Regarding C645A, the “Citrullination activity of PADI4 WT / C645A (Figure S4c)” value in assay [2] (+EDTA) was 0.268 and 0.278 and 0.279 and 0.186 and 0.254 and 0.214; in assay [2] (-EDTA) it was 0.211 and 0.22 and 0.222 and 0.281 and 0.285 and 0.262.
What is called Ki is a dissociation constant, usually derived from enzyme kinetics or from competition with a known ligand. On to `CC[C@H](C)[C@@H]1NC(=O)[C@@H](Cc2ccc(O)cc2)NC(=O)CSC[C@@H](C(=O)NCC(N)=O)NC(=O)[C@H]([C@@H](C)O)NC(=O)[C@H](C(C)C)NC(=O)[C@H](CC(=O)O)NC(=O)[C@H](CCCNC(=N)CF)NC(=O)[C@H](CC(C)C)NC(=O)[C@H](CC(=O)O)NC(=O)[C@H](Cc2c[nH]c3ccccc23)NC1=O` [cP4_13] ({CH2CO}-[dY]IWDL[Orn(fluoroacetimidoyl)]DVTCG-NH2; thioether N-10), for which the “covalent labelling of PADI4 C645A by intact MS” value in assay [3] is listed as “no labelling”. In addition, in assay [4] (each replicate), the k2 / kinact is 0.0029 s⁻¹ and the k-1 came to 0.00088 s⁻¹. Besides, the kinact in assay [4] (each replicate, read-out: k2 / kinact) is 0.0025 s⁻¹. The “binding to PADI4 by SPR” value in assay [4] (in words) is “among some of the poorest binders”. For the same molecule, the kinact in assay [4] (two-state reaction model, k+2, read-out: SPR kinact (converted)) is 0.00267 s⁻¹. The Ki in assay [4] (two-state reaction model, k-1/k+1) was found to be 4.3 ± 3.1 µM. Besides, in assay [5] (setting [7]), the remaining activity at 0.003 µM came out at 108%, the remaining activity at 0.01 µM stood at 111%, the remaining activity at 3 µM was found to be 87.4% and the remaining activity at 30 µM was 21.7%. The “inhibition of PADI4 activity” value in assay [5] (COLDER, in words) is listed as “Neither peptide had strong inhibitory activity”. In addition, in assay [5] (setting [8]), the remaining activity at 0.003 µM is 103%, the remaining activity at 0.01 µM came out at 104%, the remaining activity at 3 µM was found to be 101% and the remaining activity at 30 µM came out at 86.3%. Also, in assay [5] (T=0 (no preincubation), peptide 0.03 µM, read-out: PADI4 activity, dose-response data of Figure S15 (individual replicates)), the remaining activity at 0.03 µM came to 101%. Moreover, the remaining activity at 0.1 µM in assay [5] (T=0 (no preincubation), peptide 0.1 µM, read-out: PADI4 activity, dose-response data of Figure S15 (individual replicates)) turned out to be 105%. Also, the remaining activity at 0.3 µM in assay [5] (T=0 (no preincubation), peptide 0.3 µM, read-out: PADI4 activity, dose-response data of Figure S15 (individual replicates)) was 105%. Further, in assay [5] (T=0 (no preincubation), peptide 1 µM, read-out: PADI4 activity, dose-response data of Figure S15 (individual replicates)), the remaining activity at 1 µM turned out to be 102%. The remaining activity at 10 µM in assay [5] (T=0 (no preincubation), peptide 10 µM, read-out: PADI4 activity, dose-response data of Figure S15 (individual replicates)) turned out to be 96.7%. For the same molecule, the “covalent labelling of PADI4 by intact MS” value in assay [6] is listed as “single; also recorded: covalently bind to C645 of PADI4”.

B1: PADI3 (protein, UniProt Q9ULW8 1-664, looked up)
Protein-arginine deiminase …: MSLQRIVRVSLEHPTSAVCVAGVETLVDIYGSVPEGTEMFEVYGTPGVDIYISPNMERGRERADTRRWRFDATLEIIVVMNSPSNDLNDSHVQISYHSSHEPLPLAYAVLYLTCVDISLDCDLNCEGRQDRNFVDKRQWVWGPSGYGGILLVNCDRDDPSCDVQDNCDQHVHCLQDLEDMSVMVLRTQGPAALFDDHKLVLHTSSYDAKRAQVFHICGPEDVCEAYRHVLGQDKVSYEVPRLHGDEERFFVEGLSFPDAGFTGLISFHVTLLDDSNEDFSASPIFTDTVVFRVAPWIMTPSTLPPLEVYVCRVRNNTCFVDAVAELARKAGCKLTICPQAENRNDRWIQDEMELGYVQAPHKTLPVVFDSPRNGELQDFPYKRILGPDFGYVTREPRDRSVSGLDSFGNLEVSPPVVANGKEYPLGRILIGGNLPGSSGRRVTQVVRDFLHAQKVQPPVELFVDWLAVGHVDEFLSFVPAPDGKGFRMLLASPGACFKLFQEKQKCGHGRALLFQGVVDDEQVKTISINQVLSNKDLINYNKFVQSCIDWNREVLKRELGLAECDIIDIPQLFKTERKKATAFFPDLVNMLVLGKHLGIPKPFGPIINGCCCLEEKVRSLLEPLGLHCTFIDDFTPYHMLHGEVHCGTNVCRKPFSFKWWNMVP
As for B1, the “Absorbance at 540 nm” value in assay [2] is 1.346 and 1.369 and 1.38 and 1.26 and 1.243 and 1.268.

B2: PADI1 (protein, UniProt Q9ULC6 1-663, looked up)
Protein-arginine deiminase …: MAPKRVVQLSLKMPTHAVCVVGVEAHVDIHSDVPKGANSFRVSGSSGVEVFMVYNRTRVKEPIGKARWPLDTDADMVVSVGTASKELKDFKVRVSYFGEQEDQALGRSVLYLTGVDISLEVDTGRTGKVKRSQGDKKTWRWGPEGYGAILLVNCDRDNHRSAEPDLTHSWLMSLADLQDMSPMLLSCNGPDKLFDSHKLVLNVPFSDSKRVRVFCARGGNSLSDYKQVLGPQCLSYEVERQPGEQEIKFYVEGLTFPDADFLGLVSLSVSLVDPGTLPEVTLFTDTVGFRMAPWIMTPNTQPPEELYVCRVMDTHGSNEKFLEDMSYLTLKANCKLTICPQVENRNDRWIQDEMEFGYIEAPHKSFPVVFDSPRNRGLKDFPYKRILGPDFGYVTREIPLPGPSSLDSFGNLDVSPPVTVGGTEYPLGRILIGSSFPKSGGRQMARAVRNFLKAQQVQAPVELYSDWLSVGHVDEFLTFVPTSDQKGFRLLLASPSACLKLFQEKKEEGYGEAAQFDGLKHQAKRSINEMLADRHLQRDNLHAQKCIDWNRNVLKRELGLAESDIVDIPQLFFLKNFYAEAFFPDMVNMVVLGKYLGIPKPYGPIINGRCCLEEKVQSLLEPLGLHCIFIDDYLSYHELQGEIHCGTNVRRKPFPFKWWNMVP
For the molecule B2, the “Absorbance at 540 nm” value in assay [2] was 1.397 and 1.419 and 1.464 and 1.243 and 1.309 and 1.332.
